US20260285855A1, “HETEROARYL DERIVATIVES AS DDRS INHIBITORS” (CHIESI FARMACEUTICI S.P.A., priority 2023, published 2026)

What was measured:
DDR2 = biological target: T1, DDR2 (Homo sapiens, UniProt Q16832); experiment: LanthaScreen Europium Kinase Binding assay, DDR2; details: 5 nM DDR2, 10 nM Kinase Tracer 178, 1 h at rt; Ki from IC50 by Cheng-Prusoff; read-out: Ki DDR2
T1 construct: purchased Life Technologies
T1 sequence (Q16832 22-855): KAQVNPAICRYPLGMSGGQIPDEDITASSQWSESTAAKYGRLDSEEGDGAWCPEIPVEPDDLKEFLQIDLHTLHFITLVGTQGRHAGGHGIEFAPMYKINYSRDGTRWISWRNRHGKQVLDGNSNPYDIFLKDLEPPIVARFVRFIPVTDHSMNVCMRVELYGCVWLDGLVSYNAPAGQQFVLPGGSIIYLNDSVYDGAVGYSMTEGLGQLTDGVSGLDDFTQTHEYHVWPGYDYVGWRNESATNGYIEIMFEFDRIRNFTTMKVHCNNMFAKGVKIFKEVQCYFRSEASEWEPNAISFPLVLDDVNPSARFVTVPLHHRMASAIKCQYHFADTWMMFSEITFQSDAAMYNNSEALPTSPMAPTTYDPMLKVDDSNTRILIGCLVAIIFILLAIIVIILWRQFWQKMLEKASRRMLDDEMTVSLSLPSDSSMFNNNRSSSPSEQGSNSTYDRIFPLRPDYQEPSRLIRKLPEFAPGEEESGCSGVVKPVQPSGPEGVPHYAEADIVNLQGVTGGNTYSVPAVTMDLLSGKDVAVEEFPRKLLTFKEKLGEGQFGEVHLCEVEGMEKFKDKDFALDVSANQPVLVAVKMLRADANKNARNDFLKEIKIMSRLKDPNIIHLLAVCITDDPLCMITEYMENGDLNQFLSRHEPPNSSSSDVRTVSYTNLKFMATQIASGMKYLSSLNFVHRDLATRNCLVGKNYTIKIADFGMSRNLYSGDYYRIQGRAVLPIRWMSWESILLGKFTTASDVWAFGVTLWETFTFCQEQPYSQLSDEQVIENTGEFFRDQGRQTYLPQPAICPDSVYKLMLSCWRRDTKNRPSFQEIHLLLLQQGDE
Description: (§1) DDR1 and DDR2 binding assays were performed using Life Technologies LanthaScreen™ Europium Kinase Binding assay. […] IC50 values were determined in GraphPad Prism 7.0 software, using 4 parameter model: log (inhibitor) vs. response. IC50 values were converted in Ki using the Cheng-Prusoff equation (Ki-IC50/(1+ [Tracer]/Kd).

DDR1 = biological target: T2, DDR1 (Homo sapiens, UniProt Q08345); experiment: LanthaScreen Europium Kinase Binding assay, DDR1; details: 5 nM DDR1, 20 nM Kinase Tracer 178, 1 h at rt; Ki from IC50 by Cheng-Prusoff; read-out: Ki DDR1
T2 construct: purchased Carna Biosciences
Description: as §1

T2 sequence (Q08345 19-913): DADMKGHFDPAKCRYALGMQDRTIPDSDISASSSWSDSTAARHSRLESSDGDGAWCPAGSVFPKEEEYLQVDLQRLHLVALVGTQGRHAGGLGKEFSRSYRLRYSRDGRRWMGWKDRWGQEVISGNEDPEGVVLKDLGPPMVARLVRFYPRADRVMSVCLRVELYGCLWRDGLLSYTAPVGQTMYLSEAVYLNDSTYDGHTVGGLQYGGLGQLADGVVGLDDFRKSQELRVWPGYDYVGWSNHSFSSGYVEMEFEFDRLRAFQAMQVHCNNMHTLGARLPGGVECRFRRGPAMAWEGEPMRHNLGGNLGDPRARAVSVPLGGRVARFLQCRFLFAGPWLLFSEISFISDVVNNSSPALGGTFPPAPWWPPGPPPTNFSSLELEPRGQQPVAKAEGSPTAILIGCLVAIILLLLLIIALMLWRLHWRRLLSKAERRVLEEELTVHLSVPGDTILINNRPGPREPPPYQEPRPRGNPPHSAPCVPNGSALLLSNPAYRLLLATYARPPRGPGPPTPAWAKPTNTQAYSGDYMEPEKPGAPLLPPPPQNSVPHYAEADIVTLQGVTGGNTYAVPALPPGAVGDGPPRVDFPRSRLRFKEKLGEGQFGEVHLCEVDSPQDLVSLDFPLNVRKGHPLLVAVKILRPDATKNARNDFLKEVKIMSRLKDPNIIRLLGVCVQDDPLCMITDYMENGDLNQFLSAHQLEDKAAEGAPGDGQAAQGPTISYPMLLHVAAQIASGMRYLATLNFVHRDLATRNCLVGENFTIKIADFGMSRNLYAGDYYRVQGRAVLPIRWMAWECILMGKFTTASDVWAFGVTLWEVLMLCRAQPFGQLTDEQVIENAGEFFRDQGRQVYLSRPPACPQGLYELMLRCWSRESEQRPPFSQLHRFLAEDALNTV

Compound | Ki (DDR2) [nM] | Ki (DDR1) [nM]
Cn1cc(C(F)(F)F)cc(NC(=O)NC2CC3(C2)CN(C(=O)c2cnn4ccsc24)C3)c1=O [Example 58, 1-(1-methyl-2-oxo-5-(trifluoromethyl)-1,2-dihydropyridin-3-yl)-3-(2-(pyrazolo[5,1-b]thiazole-7-carbonyl)-2-azaspiro[3.3]heptan-6-yl)urea] | 5 to 25 | < 5
O=C(Nc1cc(C(F)(F)F)ccn1)NC1CC2(C1)CN(C(=O)c1cnn3ccsc13)C2 [Example 59, 1-(2-(pyrazolo[5,1-b]thiazole-7-carbonyl)-2-azaspiro[3.3]heptan-6-yl)-3-(4-(trifluoromethyl)pyridin-2-yl)urea] | 5 to 25 | < 5
CN(C(=O)Nc1cc(F)cc(C(F)(F)F)c1)C1CC2(C1)CN(C(=O)c1cnn3ccsc13)C2 [Example 60, 3-(3-fluoro-5-(trifluoromethyl)phenyl)-1-methyl-1-(2-(pyrazolo[5,1-b]thiazole-7-carbonyl)-2-azaspiro[3.3]heptan-6-yl)urea] | < 5 | < 5
Cc1ccc(OC(F)(F)F)cc1NC(=O)NC1CC2(C1)CN(C(=O)c1cnn3ccn(C)c13)C2 [Example 61, 1-(2-(1-methyl-1H-imidazo[1,2-b]pyrazole-7-carbonyl)-2-azaspiro[3.3]heptan-6-yl)-3-(2-methyl-5-(trifluoromethoxy)phenyl)urea] | 5 to 25 | < 5
COc1ccc(OC(F)(F)F)cc1NC(=O)NC1CC2(C1)CN(C(=O)c1ncnc3ccsc13)C2 [Example 62, 1-(2-methoxy-5-(trifluoromethoxy)phenyl)-3-(2-(thieno[3,2-d]pyrimidine-4-carbonyl)-2-azaspiro[3.3]heptan-6-yl)urea] | 5 to 25 | < 5
Cn1ccn2ncc(C(=O)N3CC4(CC(NC(=O)Nc5cccc(C(F)F)c5)C4)C3)c12 [Example 63, 1-(3-(difluoromethyl)phenyl)-3-(2-(1-methyl-1H-imidazo[1,2-b]pyrazole-7-carbonyl)-2-azaspiro[3.3]heptan-6-yl)urea] | 5 to 25 | < 5
CN(C(=O)Nc1cc(F)cc(C(F)(F)F)c1)C1CC2(C1)CN(C(=O)c1cnn3ccn(C)c13)C2 [Example 64, 3-(3-fluoro-5-(trifluoromethyl)phenyl)-1-methyl-1-(2-(1-methyl-1H-imidazo[1,2-b]pyrazole-7-carbonyl)-2-azaspiro[3.3]heptan-6-yl)urea] | 5 to 25 | < 5
COc1ccc(C(F)(F)F)cc1NC(=O)NC1CC2(C1)CN(C(=O)c1cnn3ccn(C)c13)C2 [Example 65, 1-(2-methoxy-5-(trifluoromethyl)phenyl)-3-(2-(1-methyl-1H-imidazo[1,2-b]pyrazole-7-carbonyl)-2-azaspiro[3.3]heptan-6-yl)urea] | 5 to 25 | < 5
Cn1ccn2ncc(C(=O)N3CC4(CC(NC(=O)Nc5cc(C(F)F)ccn5)C4)C3)c12 [Example 66, 1-(4-(difluoromethyl)pyridin-2-yl)-3-(2-(1-methyl-1H-imidazo[1,2-b]pyrazole-7-carbonyl)-2-azaspiro[3.3]heptan-6-yl)urea] | 5 to 25 | < 5
Cn1ccn2ncc(C(=O)N3CC4(CC(NC(=O)Nc5cccc(OC(F)F)c5)C4)C3)c12 [Example 67, 1-(3-(difluoromethoxy)phenyl)-3-(2-(1-methyl-1H-imidazo[1,2-b]pyrazole-7-carbonyl)-2-azaspiro[3.3]heptan-6-yl)urea] | 5 to 25 | < 5

Other lines, results leading:

Ki (DDR2) [nM] | Ki (DDR1) [nM] | Compound
5 to 25 | < 5 | COc1ccc(OC(F)(F)F)cc1NC(=O)NC1CC2(C1)CN(C(=O)c1cnn3ccccc13)C2 [Example 68, 1-(2-methoxy-5-(trifluoromethoxy)phenyl)-3-(2-(pyrazolo[1,5-a]pyridine-3-carbonyl)-2-azaspiro[3.3]heptan-6-yl)urea]
5 to 25 | < 5 | COc1ccc(OC(F)(F)F)cc1NC(=O)NC1CC2(C1)CN(C(=O)c1cnn3ccc(N4CCN(C)CC4)cc13)C2 [Example 69, 1-(2-methoxy-5-(trifluoromethoxy)phenyl)-3-(2-(5-(4-methylpiperazin-1-yl)pyrazolo[1,5-a]pyridine-3-carbonyl)-2-azaspiro[3.3]heptan-6-yl)urea]
< 5 | < 5 | CCn1ccn2ncc(C(=O)N3CC4(CC(NC(=O)Nc5cccc(C(F)(F)F)c5)C4)C3)c12 [Example 70, 1-(2-(1-ethyl-1H-imidazo[1,2-b]pyrazole-7-carbonyl)-2-azaspiro[3.3]heptan-6-yl)-3-(3-(trifluoromethyl)phenyl)urea]
< 5 | < 5 | Cn1ccn2ncc(C(=O)N3CC4(CC(NC(=O)Nc5cc(C#N)cc(OC(F)(F)F)c5)C4)C3)c12 [Example 71, 1-(3-cyano-5-(trifluoromethoxy)phenyl)-3-(2-(1-methyl-1H-imidazo[1,2-b]pyrazole-7-carbonyl)-2-azaspiro[3.3]heptan-6-yl)urea]
5 to 25 | < 5 | Cn1ccn2ncc(C(=O)N3CC4(CC(NC(=O)Nc5cc(OC(F)(F)F)ccc5F)C4)C3)c12 [Example 72, 1-(2-fluoro-5-(trifluoromethoxy)phenyl)-3-(2-(1-methyl-1H-imidazo[1,2-b]pyrazole-7-carbonyl)-2-azaspiro[3.3]heptan-6-yl)urea]
5 to 25 | < 5 | Cn1ccn2ncc(C(=O)N3CC4(CC(NC(=O)Nc5cc(OC(F)(F)F)ccn5)C4)C3)c12 [Example 73, 1-(2-(1-methyl-1H-imidazo[1,2-b]pyrazole-7-carbonyl)-2-azaspiro[3.3]heptan-6-yl)-3-(4-(trifluoromethoxy)pyridin-2-yl)urea]
< 5 | < 5 | O=C(Nc1cc(C(F)F)ccn1)NC1CC2(C1)CN(C(=O)c1ncnc3ccsc13)C2 [Example 74, 1-(4-(difluoromethyl)pyridin-2-yl)-3-(2-(thieno[3,2-d]pyrimidine-4-carbonyl)-2-azaspiro[3.3]heptan-6-yl)urea]
5 to 25 | < 5 | Cn1ccn2ncc(C(=O)N3CC4(CC(NC(=O)Nc5cc(C(F)(F)F)ccn5)C4)C3)c12 [Example 75, 1-(2-(1-methyl-1H-imidazo[1,2-b]pyrazole-7-carbonyl)-2-azaspiro[3.3]heptan-6-yl)-3-(4-(trifluoromethyl)pyridin-2-yl)urea]
5 to 25 | < 5 | COc1ccc(OC(F)(F)F)cc1NC(=O)N(C)C1CC2(C1)CN(C(=O)c1ncnc3ccsc13)C2 [Example 77, 3-(2-methoxy-5-(trifluoromethoxy)phenyl)-1-methyl-1-(2-(thieno[3,2-d]pyrimidine-4-carbonyl)-2-azaspiro[3.3]heptan-6-yl)urea]
25 to 100 | < 5 | COc1c(CO)cc(OC(F)(F)F)cc1NC(=O)NC1CC2(C1)CN(C(=O)c1cnn3ccn(C)c13)C2 [Example 78, 1-(3-(hydroxymethyl)-2-methoxy-5-(trifluoromethoxy)phenyl)-3-(2-(1-methyl-1H-imidazo[1,2-b]pyrazole-7-carbonyl)-2-azaspiro[3.3]heptan-6-yl)urea]
< 5 | < 5 | O=C(Nc1cccc(C(F)(F)F)c1)NC1CC2(C1)CN(C(=O)c1ncnc3ccsc13)C2 [Example 79, 1-(2-(thieno[3,2-d]pyrimidine-4-carbonyl)-2-azaspiro[3.3]heptan-6-yl)-3-(3-(trifluoromethyl)phenyl)urea]
